# In patent publication US9840478B2 (MERCK SHARP & DOHME CORP., priority 2013, dated 2017):
# Test system: HIV-1 (H9IIIB strain)
# Test: Cell-based HIV infection assay using a reporter (Cell-Based), MT4-GFP cells
# Details: Human immunodeficiency virus 1, MT4-GFP cells infected with HIV-1 H9IIIB; 50% normal human serum; mean of at least two independent experiments; read-out: Cell-based IP
# How it was run: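 MT4-GFP cells (HIV LTR-driven GFP) infected 24 h with HIV-1 H9IIIB at low MOI, then washed and plated with compounds in RPMI + 50% normal human serum, 0.4% DMSO final. Green cells counted at 24 and 48 h; R0 = 48 h/24 h ratio, inhibition normalized to DMSO and triple-drug control; IC50 from 4-parameter fit.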
row,SMILES,IC50 [nM]
1,"C[C@@H]1CNC[C@H](CCc2c(F)cccc2NC(=O)[C@@H](N)[C@@H](c2ccc(Cl)cc2)C2CCOCC2)N1S(C)(=O)=O [Example 160, (βR)-4-chloro-N-(3-fluoro-2-{2-[(2S,6R)-6-methyl-1-(methylsulfonyl)piperazin-2-yl]ethyl}phenyl)-β-(tetrahydro-2H-pyran-4-yl)-L-phenylalaninamide]",190
2,"COC(=O)N[C@H](C(=O)Nc1cccc(F)c1CC[C@H]1CNC[C@H](C)N1S(=O)(=O)c1ccc(OC)cc1)[C@@H](c1ccc(F)cc1)c1cc(F)cc(F)c1 [Example 252, (βS)-β-(3,5-difluorophenyl)-4-fluoro-N-[3-fluoro-2-(2-{(2S,6S)-1-[(4-methoxyphenyl)sulfonyl]-6-methylpiperazin-2-yl}ethyl)phenyl]-Nα-(methoxycarbonyl)-L-phenylalaninamide]",7.9
3,"CC(=O)Nc1nc(C)c(S(=O)(=O)N2CCNC[C@@H]2CCc2c(F)cncc2NC(=O)C[C@@H](c2ccc(F)cc2)c2cc(F)cc(F)c2)s1 [Example 318, (3S)-N-(4-{2-[(2S)-1-{[2-(acetylamino)-4-methyl-1,3-thiazol-5-yl]sulfonyl}piperazin-2-yl]ethyl}-5-fluoropyridin-3-yl)-3-(3,5-difluorophenyl)-3-(4-fluorophenyl)propanamide]",97
4,"CC(C)[C@H](c1cccc(Cl)c1)[C@H](N)C(=O)Nc1cccc(F)c1CC[C@H]1CNC[C@H](C)N1S(=O)(=O)c1ccccc1 [Example 207, (βR)-3-chloro-N-(3-fluoro-2-{2-[(2S,6S)-6-methyl-1-(phenylsulfonyl)piperazin-2-yl]ethyl}phenyl)-β-(1-methylethyl)-L-phenylalaninamide]",760
5,"O=C(C[C@@H](c1ccc(F)cc1)c1cc(F)cc(F)c1)Nc1cncc(F)c1CC[C@H]1CNCCN1C(=O)COc1ccccc1 [Example 343, (3S)-3-(3,5-difluorophenyl)-N-(5-fluoro-4-{2-[(2S)-1-(phenoxyacetyl)piperazin-2-yl]ethyl}pyridin-3-yl)-3-(4-fluorophenyl)propanamide]",125
6,"Nc1ccc(S(=O)(=O)N2CCNC[C@@H]2CCc2c(F)cncc2NC(=O)C[C@@H](c2ccc(F)cc2)c2cc(F)cc(F)c2)cn1 [Example 307, (3S)-N-[4-(2-{(2S)-1-[(6-aminopyridin-3-yl)sulfonyl]piperazin-2-yl}ethyl)-5-fluoropyridin-3-yl]-3-(3,5-difluorophenyl)-3-(4-fluorophenyl)propanamide]",130
7,"COC(=O)N[C@H](C(=O)Nc1cccc(F)c1CC[C@H]1CNC[C@H](C)N1S(=O)(=O)c1ccc(OC(F)(F)F)cc1)[C@@H](c1ccc(Cl)cc1)c1ccc(OC)nc1 [Example 189, (βS)-4-chloro-N-(3-fluoro-2-{2-[(2S,6S)-6-methyl-1-{[4-(trifluoromethoxy)phenyl]sulfonyl}piperazin-2-yl]ethyl}phenyl)-Nα-(methoxycarbonyl)-β-(6-methoxypyridin-3-yl)-L-phenylalaninamide]",29
8,"COC(=O)N[C@H](C(=O)Nc1cncc(F)c1CC[C@H]1CNCCN1S(=O)(=O)c1ccccc1)C1(c2ccc(Cl)cc2)CCOCC1 [Example 71, methyl {(1S)-1-[4-(4-chlorophenyl)tetrahydro-2H-pyran-4-yl]-2-[(5-fluoro-4-{2-[(2S)-1-(phenylsulfonyl)piperazin-2-yl]ethyl}pyridin-3-yl)amino]-2-oxoethyl} carbamate]",11
9,"COC(=O)N[C@H](C(=O)Nc1cccc(F)c1CC[C@H]1CNC[C@@H](C)N1S(=O)(=O)c1ccc(F)cc1)[C@@H](c1ccc(Cl)cc1)C1CCOCC1 [Example 18, Methyl ((1R,2S)-1-(4-chlorophenyl)-3-((3-fluoro-2-(2-((2S,6R)-1-((4-fluorophenyl)sulfonyl)-6-methylpiperazin-2-yl)ethyl)phenyl)amino)-3-oxo-1-(tetrahydro-2H-pyran-4-yl)propan-2-yl)carbamate]",8.6
10,"COC(=O)N[C@H](C(=O)Nc1cccc(F)c1CC[C@H]1CNC[C@H](C)N1S(=O)(=O)C1CC1)[C@@H](c1ccc(Cl)cc1)c1ccc(OC)nc1 [Example 151, (βS)-4-chloro-N-(2-{2-[(2S,6S)-1-(cyclopropylsulfonyl)-6-methylpiperazin-2-yl]ethyl}-3-fluorophenyl)-Nα-(methoxycarbonyl)-β-(6-methoxypyridin-3-yl)-L-phenylalaninamide]",17
11,"CC[C@H]1CNC[C@H](CCc2c(F)cccc2NC(=O)[C@@H](NC(=O)OC)[C@@H](c2ccc(Cl)cc2)C2CCOCC2)N1S(C)(=O)=O [Example 225, (βR)-4-chloro-N-(2-{2-[(2S,6S)-6-ethyl-1-(methylsulfonyl)piperazin-2-yl]ethyl}-3-fluorophenyl)-Nα-(methoxycarbonyl)-β-(tetrahydro-2H-pyran-4-yl)-L-phenylalaninamide]",23
12,"COC(=O)N[C@H](C(=O)Nc1cccc(F)c1CC[C@H]1CNC[C@@H](C)N1S(=O)(=O)c1ccccc1)C1(c2ccc(F)c(F)c2)CCOCC1 [Example 290, methyl {(1S)-1-[4-(3,4-difluorophenyl)tetrahydro-2H-pyran-4-yl]-2-[(3-fluoro-2-{2-[(2S,6R)-6-methyl-1-(phenylsulfonyl)piperazin-2-yl]ethyl}phenyl)amino]-2-oxoethyl}carbamate]",15
13,"C[C@@H]1CNC[C@H](CCc2c(F)cccc2NC(=O)[C@@H](N)[C@@H](c2ccc(F)c(F)c2)C2CCOCC2)N1S(=O)(=O)c1ccccc1 [Example 288, (βR)-3,4-difluoro-N-(3-fluoro-2-{2-[(2S,6R)-6-methyl-1-(phenylsulfonyl)piperazin-2-yl]ethyl}phenyl)-β-(tetrahydro-2H-pyran-4-yl)-L-phenylalaninamide]",23
14,"CC(C)[C@H](c1ccc(Cl)cc1)[C@H](N)C(=O)Nc1cccc(F)c1CC[C@H]1CNC[C@@H](C)N1S(=O)(=O)C1CC1 [Example 128, (βR)-4-chloro-N-(2-{2-[(2S,6R)-1-(cyclopropylsulfonyl)-6-methylpiperazin-2-yl]ethyl}-3-fluorophenyl)-β-(1-methylethyl)-L-phenylalaninamide]",610
15,"COc1ccc([C@H](c2ccc(Cl)cc2)[C@H](N)C(=O)Nc2cccc(F)c2CC[C@H]2CNC[C@H](C)N2S(=O)(=O)C2CC2)cn1 [Example 150, (βS)-4-chloro-N-(2-{2-[(2S,6S)-1-(cyclopropylsulfonyl)-6-methylpiperazin-2-yl]ethyl}-3-fluorophenyl)-β-(6-methoxypyridin-3-yl)-L-phenylalaninamide]",26
16,"C[C@@H]1CNC[C@H](CCc2c(F)cccc2NC(=O)[C@@H](N)[C@@H](Cc2ccc(F)cc2)c2ccc(Cl)cc2)N1S(=O)(=O)c1ccccc1 [Example 195, (βS)-4-chloro-β-(4-fluorobenzyl)-N-(3-fluoro-2-{2-[(2S,6R)-6-methyl-1-(phenylsulfonyl)piperazin-2-yl]ethyl}phenyl)-L-phenylalaninamide]",77

# Same assay, conditions: MT4-GFP cells infected with HIV-1 H9IIIB; 50% normal human serum; mean of at least two independent experiments; read-out: Cell-based IP
row,SMILES,IC50 [nM]
1,"COC(=O)NC(C(=O)NC1CC(F)(F)CC1CC[C@H]1CNCCN1S(=O)(=O)c1ccccc1)C(c1ccc(F)cc1)c1ccc(F)cc1 (stereo in doubt) [Example 358, Methyl ((2R)-1-((4,4-difluoro-2-(2-((S)-1-(phenylsulfonyl)piperazin-2-yl)ethyl)cyclopentyl)amino)-3,3-bis(4-fluorophenyl)-1-oxopropan-2-yl)carbamate]",160
